A value given as a limit tells only on which side of the number the result lay.

Common to all, as to type: cell-based
For experiment [1], the system named is SARS-CoV-2, USA-WA1/2020 strain.
Experiment [2] deals with influenza B (Brisbane/60/2008 strain). As to the kind of experiment: Neutral red CPE assay, influenza B in MDCK cells. As to conditions: DMEM + trypsin + EDTA, max CPE day 3. How it is done: K12 and M18 were tested for in vitro antiviral activity against RSV (A2 strain) and influenza B (Brisbane/60/2008 strain).
Samples were serially diluted using four 2-fold dilutions in media so that the starting (high) test concentration was 50%. Media for MDCK cells included DMEM+10 U/ml trypsin+1 ug/mL EDTA. Each dilution was added to 5 wells of a 96-well plate with 80-100% confluent cells. Three wells of each dilution were infected with virus, and two wells remained uninfected as toxicity controls. Six wells were infected and untreated as virus controls, and six wells were uninfected and untreated as cell controls. A positive control compound, ribavirin, was tested in parallel. Plates were incubated at 37±2° C., 5% CO2.
Once untreated virus control wells reached maximum CPE on the day indicated in the table below, plates were stained with neutral red dye for approximately 2 hours (±15 minutes). Supernatant dye was removed and wells rinsed with PBS, and the incorporated dye was extracted in 50:50 Sorensen citrate buffer/ethanol for >30 minutes and the optical density was read on a spectrophotometer at 540 nm.
The selective index (SI) is the CC50 divided by EC50.

The test system of another experiment is RSV (A2 strain). As to conditions: MA-104, DMEM, max CPE day 6.
In the next experiment the test system is Influenza A virus H3N2. As to the kind of experiment: Neutral red CPE assay, Influenza A in MDCK cells. As to conditions: strain samples: resuspension medium DMEM, time to produce antiviral activity 6. The method, then:
The antiviral activity of S. salivarius sample preparations were evaluated against severe acute respiratory syndrome coronavirus 2 (SARS-CoV-2) and Influenza A virus H3N2 in neutral red (NR) assays to evaluate inhibition of viral-induced cytopathic effect (CPE).
Neutral red assay: Samples were received frozen on dry ice and stored at −20° C. upon arrival. All 10 samples were serially diluted in test medium using 4 1:2 dilutions so that the starting (high) test concentration was 50% sample. Each dilution was added to 5 wells of a 96-well plate with 80-90% confluent Vero 76 (SARS-CoV-2) or MDCK (Influenza) cells.
Three wells of each dilution were infected with virus, and two wells remained uninfected as toxicity controls. On each plate, six untreated wells were infected as virus controls, and six untreated wells were left uninfected to use as cell controls.
Viruses were diluted to a specific 50% cell culture infectious dose (CCID50) per mL to achieve the lowest possible multiplicity of infection (MOI) that would yield >80% cytopathic effect (CPE) within 3-5 days. […]
Supernatant dye was removed, wells rinsed with PBS, and the incorporated dye was extracted in 50:50 Sorensen citrate buffer/ethanol for >30 minutes and the optical density was read on a spectrophotometer at 540 nm. […]

Regarding `CCO` [Ethanol], the “Round 1 virus titer” value in experiment [1] (30-minute contact at room temperature, 90% preparation and 10% virus solution, virus control 4.2) turned out to be 1.1 log 10 CCID50 per 0.1 mL. Also, the “Round 2 Virus titer” value in experiment [1] (30-minute contact at room temperature, 90% preparation and 10% virus stock, virus control 4.0) is under 0.67 log 10 CCID50 per 0.1 mL. Moreover, the “Log Reduction value” in experiment [1] (Round 2, compared to virus control) came out at 3.33.
For the compound `NC(=O)c1ncn([C@@H]2O[C@H](CO)[C@@H](O)[C@H]2O)n1` [Ribavirin, ribavirin], the “SI Index” value is over 320 in experiment [2], 14 with RSV (A2 strain) and over 590 in the experiment with Influenza A virus H3N2.

Values taken from patent US12480089B2, “Antiviral treatment comprising Blis containing probiotic products” (BLIS TECHNOLOGIES LIMITED, priority 2020, dated 2025).
